# Reference: US4576943A, “Pyrazolo[1,5-a]pyrimidines” (American Cyanamid Company, priority 1984, dated 1986)
# Legend:
# Hypoxic Survival Test = type: in vivo, Royal Hart mice; conditions: 50 mg/kg i.p., 10% oxygen, 5 minutes
# Method: Groups of 20 Royal Hart mice (6 weeks of age) are injected intraperitoneally with 10, 50 or 100 mg/kg of test compound 30 minutes prior to placing them in a hypoxic mixture (10% oxygen in 90% […]) and measuring survival after 5 minutes.
# A separate group of 20 mice is injected intraperitoneally with saline solution (0.01 cc/g of body weight) and processed as described above.
# Still another group of 20 mice is injected intraperitoneally with 0.125 mg/kg of physostigmine and processed as described above.
# [1] = Passive Avoidance Anoxic Induced Amnesia Test; type: in vivo, Swiss-Webster, middle-aged mice; conditions: 100 mg/kg i.p., 30 minutes prior to training and testing; over saline control
# Text: Another in vivo test associated with decreased neural function in mammals is the Passive Avoidance Anoxic Induced Amnesia Test. This test is used to determine the attenuation of anoxic induced amnesia in mice treated with drug, as compared to saline treated control animals with no drug.
# A shock-motivated, single trial, step-through passive avoidance procedure is used. Groups of 25 Swiss-Webster, middle-aged mice (9 months of age) are placed singly in the front chamber of a 2-chamber box and are allowed to voluntarily cross into the rear chamber. As soon as the mouse enters the rear chamber, a guillotine door automatically traps the animal and a mild electric shock (0.4 mA for 4 seconds) is delivered to its feet. Following the foot shock, the mice are initially placed in an anoxic environment (0% oxygen) for 12 seconds, which quickly induces unconsciousness. They are then placed in a hypoxic environment (15% oxygen) for four minutes which prolongs the oxygen deprived state, maintaining unconsciousness. All testing is performed 24 hours later, and in all cases the mice appear fully recovered from the previous anoxic/hypoxic treatment. All test compounds are administered intraperitoneally at a dose of 10-100 mg/kg, 30 minutes prior to training and testing. […]
# The latency to enter the rear chamber is recorded for both training and testing. […]
# [2] = Non-conditioned passive avoidance test in rats (antianxiety); type: in vivo, Wistar strain rats; set-up: key: Active: the number of shocks received by the test group is significantly higher than the control group by the Mann-Witney U test; conditions: 25 mg/kg, oral or intraperitoneal
# Method: The antianxiety effects of the novel compounds of the present invention have been assessd in a non-conditioned passive avoidance procedure described by J. R. Vogel, B. Beer and D. E. Clody, "A Simple and Reliable Conflict Procedure for Testing Antianxiety Agents", Psychopharmacologia, 21, 1-7 (1971). A conflict situation was induced in rats by a modification of this method.
# Groups of 6 naive, Wistar strain rats, weighing 200-240 g each, were deprived of water for 48 hours and food for 24 hours. The test compounds were administered in single or graded, oral or intraperitoneal doses, suspended in a 2% starch vehicle containing 0.5% v/v polyethylene glycol and one drop of Polysorbate 80. Control animals received the vehicle alone. At 30 or 60 minutes each rat was placed in an individual plexiglass chamber. Water was available ad libitum from a tap located in the rear of the chamber. A 0.7 milliampere DC shocking current was established between the stainless steel grid floor and the tap. After 20 licks of non-shocked drinking, a shock was delivered for 2 seconds and then further shocks were delivered on a ratio of one shock for 2 seconds for every 20 licks. This was continued for a total of 3 minutes. The number of shocks taken by each rat during the 3 minute interval was recorded and compared to a control group.
# [3] = Hypotensive activity in spontaneously hypertensive rats; type: in vivo, spontaneously hypertensive rats of the Okamoto strain; conditions: 100 mg/kg by gavage, two doses 24 hours apart, measured at 28 hours after the initial dose; one or two rats
# Method: The novel compounds of the present invention are active hypotensive agents and were tested for hypotensive activity by the method of P. S. Chan and D. Poorvin, Clinical and Experimental Hypertension, 1 (6), 817-830 (1979). […] One to 3 rats are used per test compound. A rat is dosed by gavage with a test compound suspended in 2% pre-boiled starch at a concentration of 50 mg/ml, at a dose of 100 mg/kg of body weight or less, with 0.9% sodium chloride loading at a dose of 25 ml/kg of body weight. A second identical dose of the test compound, without sodium chloride loading is given 24 hours later. At 28 hours after the initial dose the mean arterial blood pressure is measured by the method of Chan and Poorvin (see above). The procedure is repeated in a second and third rat when necessary. The results of this test on representative compounds of the present invention which were obtained using one or two rats, at a dose of 100 mg/kg of body weight appear below in Table I.
SMILES,% Survivors (Hypoxic Survival Test) [%],% Improvement [1] [%],Result (non-conditioned passive avoidance) [2],Mean Arterial Blood Pressure [3]
"N#Cc1c(N2CCN(Cc3ccccc3)CC2)nn2c(-c3cccc(C(F)(F)F)c3)ccnc12 [2-[4-(Phenylmethyl)-1-piperazinyl]-7-[3-(trifluoromethyl)phenyl]pyrazolo[1,5-a]pyrimidine-3-carbonitrile]",52,44,,
"N#Cc1c(N2CCN(Cc3cccc(Cl)c3)CC2)nn2c(-c3ccccc3)ccnc12 [2-[4-[(3-Chlorophenyl)methyl]-1-piperazinyl]-7-phenylpyrazolo[1,5-a]pyrimidine-3-carbonitrile]",,,Active,
"N#Cc1c(N2CCOCC2)nn2c(-c3cccc(C(F)(F)F)c3)ccnc12 [2-(4-Morpholinyl)-7-[3-(trifluoromethyl)phenyl]pyrazolo[1,5-a]pyrimidine-3-carbonitrile]",,,Active,142 mm of mercury
"Cc1cc(-c2ccccc2)n2nc(N3CCN(Cc4ccccc4)CC3)c(C#N)c2n1 [5-Methyl-7-phenyl-2-[4-(phenylmethyl)-1-piperazinyl]-pyrazolo[1,5-a]pyrimidine-3-carbonitrile]",,,Active,131 mm of mercury
